According to ChEMBL document CHEMBL4706690, “Identification of BR102910 as a selective fibroblast activation protein (FAP) inhibitor” (Bioorg Med Chem Lett, 2021):
The source made the active and inactive calls. The calls are words filed in the database; no cut-off is given here.

Legend:
Prolyl endopeptidase FAP = target: T1, Prolyl endopeptidase FAP (Homo sapiens, UniProt Q12884); test: Inhibition of FAP (unknown origin) using AMC substrate by fluorometric assay
T1 sequence (Q12884 whole entry): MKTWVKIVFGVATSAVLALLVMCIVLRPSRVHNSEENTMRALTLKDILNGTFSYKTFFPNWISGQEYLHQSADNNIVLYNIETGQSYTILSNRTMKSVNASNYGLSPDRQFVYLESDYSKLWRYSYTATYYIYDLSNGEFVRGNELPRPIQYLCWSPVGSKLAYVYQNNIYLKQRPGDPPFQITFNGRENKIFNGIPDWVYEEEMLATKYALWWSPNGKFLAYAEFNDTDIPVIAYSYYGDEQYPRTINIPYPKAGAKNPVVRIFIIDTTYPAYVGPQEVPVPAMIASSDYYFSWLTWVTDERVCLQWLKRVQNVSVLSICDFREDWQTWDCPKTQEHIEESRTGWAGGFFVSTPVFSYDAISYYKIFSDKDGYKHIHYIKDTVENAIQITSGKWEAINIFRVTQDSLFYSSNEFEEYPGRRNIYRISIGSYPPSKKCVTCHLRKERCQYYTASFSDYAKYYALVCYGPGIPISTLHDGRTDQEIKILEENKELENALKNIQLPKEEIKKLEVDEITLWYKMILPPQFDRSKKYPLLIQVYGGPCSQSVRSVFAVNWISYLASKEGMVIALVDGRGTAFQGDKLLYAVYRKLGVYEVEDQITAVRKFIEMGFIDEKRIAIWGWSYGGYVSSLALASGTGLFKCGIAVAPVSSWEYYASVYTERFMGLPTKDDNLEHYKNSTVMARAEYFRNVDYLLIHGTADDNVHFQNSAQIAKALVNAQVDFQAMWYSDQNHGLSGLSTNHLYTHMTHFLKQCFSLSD

[1] = target: Prolyl endopeptidase FAP (Homo sapiens) (UniProt Q12884); test: Inhibition of FAP (unknown origin) at 1 uM TR-FRET assay relative to control
Dipeptidyl peptidase 4 = Dipeptidyl peptidase 4 (Homo sapiens, UniProt P27487); test: Inhibition of DPP4 (unknown origin) using AMC substrate by fluorometric assay
Prolyl endopeptidase = target: T2, Prolyl endopeptidase (Homo sapiens, UniProt P48147)
T2 sequence (P48147 whole entry): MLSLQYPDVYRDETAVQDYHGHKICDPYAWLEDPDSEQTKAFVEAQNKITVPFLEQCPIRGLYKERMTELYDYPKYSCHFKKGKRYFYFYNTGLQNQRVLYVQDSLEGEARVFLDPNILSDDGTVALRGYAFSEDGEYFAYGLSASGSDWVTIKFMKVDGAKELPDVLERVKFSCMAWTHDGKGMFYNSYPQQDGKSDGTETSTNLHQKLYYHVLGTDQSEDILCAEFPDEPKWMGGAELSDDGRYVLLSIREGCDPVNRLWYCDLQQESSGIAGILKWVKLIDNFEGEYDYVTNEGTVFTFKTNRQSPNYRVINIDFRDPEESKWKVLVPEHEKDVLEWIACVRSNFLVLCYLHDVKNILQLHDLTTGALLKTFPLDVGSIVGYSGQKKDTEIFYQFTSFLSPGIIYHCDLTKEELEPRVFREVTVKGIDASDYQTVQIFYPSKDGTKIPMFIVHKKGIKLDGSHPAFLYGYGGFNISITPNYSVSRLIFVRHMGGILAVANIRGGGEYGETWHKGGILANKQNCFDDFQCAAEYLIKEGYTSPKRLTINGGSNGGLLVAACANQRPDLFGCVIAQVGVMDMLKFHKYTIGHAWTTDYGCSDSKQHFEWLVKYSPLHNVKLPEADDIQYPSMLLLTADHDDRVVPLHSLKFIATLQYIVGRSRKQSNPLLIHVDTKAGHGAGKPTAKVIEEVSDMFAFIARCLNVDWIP
Description: Inhibition of PREP (unknown origin) using AMC substrate by fluorometric assay

Mus musculus [2] = species: Mus musculus; conditions: C57BL/6J, dose 10-30 mg/kg, time hrs <=6
Mus musculus [3] = species: Mus musculus; conditions: dose 20-50 mg/kg, time hrs <=9
Mus musculus [4] = test: Antidiabetic activity in ob/ob mouse assessed as reduction in plasma glucose level treated single oral dose of compound and recombinant human FGF21 intraperitoneally 60 mins prior to glucose challenge by OGTT; format: functional, organism-based; conditions: dose 20-50 mg/kg
Dipeptidyl peptidase 2 = Dipeptidyl peptidase 2 (Homo sapiens, UniProt Q9UHL4); test: Inhibition of DPP2 (unknown origin) using AMC substrate by fluorometric assay

Chain of Dipeptidyl peptidase 4 (P27487 whole entry): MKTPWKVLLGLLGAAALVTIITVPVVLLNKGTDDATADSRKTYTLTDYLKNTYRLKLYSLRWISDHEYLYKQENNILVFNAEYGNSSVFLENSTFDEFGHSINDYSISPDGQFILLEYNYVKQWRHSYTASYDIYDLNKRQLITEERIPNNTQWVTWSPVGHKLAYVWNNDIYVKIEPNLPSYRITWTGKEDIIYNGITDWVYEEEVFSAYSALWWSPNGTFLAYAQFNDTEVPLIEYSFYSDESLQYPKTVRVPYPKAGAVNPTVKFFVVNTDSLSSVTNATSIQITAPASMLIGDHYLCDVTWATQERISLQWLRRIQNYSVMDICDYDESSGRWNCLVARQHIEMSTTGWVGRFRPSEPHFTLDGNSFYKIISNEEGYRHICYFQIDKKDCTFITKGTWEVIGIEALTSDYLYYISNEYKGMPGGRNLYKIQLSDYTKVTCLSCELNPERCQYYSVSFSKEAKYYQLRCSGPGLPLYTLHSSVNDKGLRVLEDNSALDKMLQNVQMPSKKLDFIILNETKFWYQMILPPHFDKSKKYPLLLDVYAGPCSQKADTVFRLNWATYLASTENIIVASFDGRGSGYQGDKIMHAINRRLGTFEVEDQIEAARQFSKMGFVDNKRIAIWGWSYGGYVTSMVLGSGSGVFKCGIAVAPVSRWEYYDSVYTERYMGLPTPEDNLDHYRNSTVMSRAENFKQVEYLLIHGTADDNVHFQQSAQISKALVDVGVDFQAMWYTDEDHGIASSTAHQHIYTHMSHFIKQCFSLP

Compound	IC50 (Prolyl endopeptidase FAP) [nM]	inhibition [1] [%]	IC50 (Dipeptidyl peptidase 4) [nM]	IC50 (Prolyl endopeptidase) [nM]	IC50 (Dipeptidyl peptidase 2) [nM]	inhibition (Mus musculus [2])	inhibition (Mus musculus [3])	Activity (Mus musculus [4])
N#C[C@@H]1CC(F)(F)CN1C(=O)CNC(=O)c1csc(Cc2ccccc2I)n1	78	90.6	> 100000	–	–	–	–	–
Cn1cc(C(=O)NCC(=O)N2CC(F)(F)C[C@H]2C#N)cc1-c1ccc(Cl)cc1	104	85.3	–	–	–	–	–	–
N#C[C@@H]1CC(F)(F)CN1C(=O)CNC(=O)c1csc(-c2ccc3occc3c2)n1	446	83.4	–	10000	–	–	–	–
N#Cc1ccc(Cc2nc(C(=O)NCC(=O)N3CC(F)(F)C[C@H]3C#N)cs2)cc1	–	99.3	> 100000	3200	–	–	–	–
N#C[C@@H]1CC(F)(F)CN1C(=O)CNC(=O)c1csc(-c2ccc(F)cc2)n1	87	90.5	–	1600	–	–	–	–
N#C[C@@H]1CC(F)(F)CN1C(=O)CNC(=O)c1csc(Cc2ccc(F)c(F)c2)n1	47	95.4	> 100000	–	–	–	–	–
N#C[C@@H]1CC(F)(F)CN1C(=O)CNC(=O)c1cccc(-c2ccc(Cl)cc2)n1	100	80.6	–	–	–	–	–	–
C[S+]([O-])c1ccc(Cc2nc(C(=O)NCC(=O)N3CC(F)(F)C[C@H]3C#N)cs2)cc1 (stereo partly specified)	390	95	4120	1200	–	–	–	–
N#C[C@@H]1CC(F)(F)CN1C(=O)CNC(=O)c1coc(-c2ccc(Cl)cc2)n1	93	88.7	–	4000	–	–	–	–
N#C[C@@H]1CC(F)(F)CN1C(=O)CNC(=O)c1csc(-c2ccc(Cl)cc2C(F)(F)F)n1	60	94.6	> 100000	–	–	–	–	–
CSc1ccc(Cc2nc(C(=O)NCC(=O)N3CC(F)(F)C[C@H]3C#N)cs2)cc1	25	99	> 100000	–	–	–	–	–
N#C[C@@H]1CC(F)(F)CN1C(=O)CNC(=O)c1c[nH]c(-c2ccc(Cl)cc2)c1	550	57.8	–	3620	–	–	–	–
Cc1ccc(Cc2nc(C(=O)NCC(=O)N3CC(F)(F)C[C@H]3C#N)cs2)cc1	37	97.8	68800	–	–	–	–	–
N#C[C@@H]1CC(F)(F)CN1C(=O)CNC(=O)c1csc(Cc2cccc(Br)c2)n1	35	97.5	52000	–	–	–	–	–
N#C[C@@H]1CC(F)(F)CN1C(=O)CNC(=O)c1csc(Cc2ccc(OC(F)(F)F)cc2)n1	22	86.3	> 100000	–	–	–	–	–
N#C[C@@H]1CC(F)(F)CN1C(=O)CNC(=O)c1csc(-c2ccc(C(F)(F)F)cc2)n1	77	99	> 100000	1380	–	–	–	–

Compound	IC50 (Prolyl endopeptidase FAP) [nM]	inhibition [1] [%]	IC50 (Dipeptidyl peptidase 4) [nM]	IC50 (Prolyl endopeptidase) [nM]	IC50 (Dipeptidyl peptidase 2) [nM]	inhibition (Mus musculus [2])	inhibition (Mus musculus [3])	Activity (Mus musculus [4])
N#C[C@@H]1CC(F)(F)CN1C(=O)CNC(=O)c1csc(-c2ccc(-c3ccccc3)cc2)n1	414	84.8	–	10000	–	–	–	–
N#Cc1ccc(SCc2nc(C(=O)NCC(=O)N3CC(F)(F)C[C@H]3C#N)cs2)cc1	24	–	44600	138	–	–	–	–
N#C[C@@H]1CC(F)(F)CN1C(=O)CNC(=O)c1cnc(-c2ccc(Cl)cc2)cn1	795	64	–	–	–	–	–	–
C[C@@H](NC(=O)c1ccncc1)C(=O)N1CCC[C@H]1B(O)O	–	–	> 100000	–	> 100000	–	–	–
N#C[C@@H]1CC(F)(F)CN1C(=O)CNC(=O)c1csc(Cc2ccc(-n3cncn3)cc2)n1	28	98.3	18700	–	–	–	–	–
N#C[C@@H]1CC(F)(F)CN1C(=O)CNC(=O)c1csc(CSc2ccc(Cl)c(Cl)c2)n1	119	–	> 100000	–	–	–	–	–
N#C[C@@H]1CC(F)(F)CN1C(=O)CNC(=O)c1csc(Cc2ccc(-n3cccn3)cc2)n1	23	98.8	> 100000	–	–	–	–	–
COc1ccc(-c2nc(C(=O)NCC(=O)N3CC(F)(F)C[C@H]3C#N)cs2)cc1	214	76.5	–	1180	–	–	–	–
N#C[C@@H]1CC(F)(F)CN1C(=O)CNC(=O)c1csc(Cc2ccc(F)cc2Cl)n1	60	95.9	> 100000	–	–	–	–	–
N#C[C@@H]1CC(F)(F)CN1C(=O)CNC(=O)c1csc(Cc2cc(Cl)ccc2Cl)n1	55	94.5	> 100000	–	–	–	–	–
N#C[C@@H]1CC(F)(F)CN1C(=O)CNC(=O)c1csc(Cc2ccc(-c3ccc(Cl)cc3)cc2)n1	145	93.8	> 100000	–	–	–	–	–
N#C[C@@H]1CC(F)(F)CN1C(=O)CNC(=O)c1csc(-c2ccc(Cl)cc2)n1	148	86.7	–	–	–	–	–	–
N#C[C@@H]1CC(F)(F)CN1C(=O)CNC(=O)c1csc(Cc2ccccc2Br)n1	50	93.7	200	–	–	–	–	–
COc1ccc(Cc2nc(C(=O)NCC(=O)N3CC(F)(F)C[C@H]3C#N)cs2)cc1	26	98	> 100000	–	–	–	–	–
N#C[C@@H]1CC(F)(F)CN1C(=O)CNC(=O)c1csc(COc2ccc(Cl)c(Cl)c2)n1	35	–	> 100000	–	–	–	–	–

Further compounds by falling IC50 (Prolyl endopeptidase FAP), results first:

IC50 (Prolyl endopeptidase FAP) [nM]	inhibition [1] [%]	IC50 (Dipeptidyl peptidase 4) [nM]	IC50 (Prolyl endopeptidase) [nM]	IC50 (Dipeptidyl peptidase 2) [nM]	Compound	inhibition (Mus musculus [2])	inhibition (Mus musculus [3])	Activity (Mus musculus [4])
21	98.6	> 100000	–	–	N#C[C@@H]1CC(F)(F)CN1C(=O)CNC(=O)c1csc(Cc2ccc(Cl)cc2)n1	–	–	–
20	98	10100	–	–	CS(=O)(=O)c1ccc(Cc2nc(C(=O)NCC(=O)N3CC(F)(F)C[C@H]3C#N)cs2)cc1	–	–	–
20	–	> 100000	–	–	Cc1ccc(S(=O)(=O)Cc2nc(C(=O)NCC(=O)N3CC(F)(F)C[C@H]3C#N)cs2)cc1	–	–	–
19	–	> 100000	–	–	N#C[C@@H]1CC(F)(F)CN1C(=O)CNC(=O)c1csc(CS(=O)(=O)c2ccc(Cl)c(Cl)c2)n1	–	–	–
16	100	> 100000	–	–	N#C[C@@H]1CC(F)(F)CN1C(=O)CNC(=O)c1csc(Cc2ccc(Br)cc2)n1	–	–	–
12	98.7	> 100000	–	–	N#Cc1ccc(-c2ccc(Cc3nc(C(=O)NCC(=O)N4CC(F)(F)C[C@H]4C#N)cs3)cc2)cc1	–	–	–
11	–	> 100000	–	–	N#C[C@@H]1CC(F)(F)CN1C(=O)CNC(=O)c1csc(CSc2ccc(C(F)(F)F)cc2)n1	–	–	–
9	–	76800	–	–	N#Cc1ccc(S(=O)(=O)Cc2nc(C(=O)NCC(=O)N3CC(F)(F)C[C@H]3C#N)cs2)cc1	–	–	–
7	–	> 100000	–	–	N#Cc1ccc(OCc2nc(C(=O)NCC(=O)N3CC(F)(F)C[C@H]3C#N)cs2)cc1	–	–	–
5	–	> 100000	–	–	N#C[C@@H]1CC(F)(F)CN1C(=O)CNC(=O)c1csc(CS(=O)(=O)c2ccc(C(F)(F)F)cc2)n1	–	–	–
5	–	> 100000	–	–	Cc1ccc(SCc2nc(C(=O)NCC(=O)N3CC(F)(F)C[C@H]3C#N)cs2)cc1	–	–	–
4	99.3	> 100000	–	–	N#C[C@@H]1CC(F)(F)CN1C(=O)CNC(=O)c1csc(Cc2ccccc2-c2ccc3ccccc3c2)n1	–	–	–
2	99	> 100000	–	–	N#C[C@@H]1CC(F)(F)CN1C(=O)CNC(=O)c1csc(Cc2ccc(Cl)c(Cl)c2)n1	Dose-dependent effect	Active	Dose-dependent effect
1	97.2	> 100000	–	–	N#C[C@@H]1CC(F)(F)CN1C(=O)CNC(=O)c1csc(Cc2ccc(Cl)cc2Cl)n1	–	–	–
